One series concerns the target Acetylcholinesterase (Homo sapiens, UniProt P22303).
Series [1] can be described thus: Cytotoxicity against mouse Neuro2a cells assessed as reduction in cell viability after 24 hrs by MTT assay. In kind it is cell-based. The settings on record: n2a. In general terms: Formazan colour is commonly taken as a measure of viable cells.
The next series addresses Cholinesterase (Homo sapiens, UniProt P06276).
Series [2] is described as follows: Cytotoxicity against rat CGN cells assessed as reduction in cell viability after 24 hrs by MTT assay. In kind it is cell-based.
The nature of series [3]: Cytotoxicity against rat CGN cells assessed as cell viability at 12.5 uM after 24 hrs by MTT assay relative to control. In kind it is cell-based. Conditions: read-out: Activity.
For series [4], the system named is Rattus norvegicus. The experiment in a line: Ex vivo inhibition of AChE in Wistar rat cerebellum at 10 or 50 umol/kg, ip measured 1 hr post dose by colorimetric method. In kind it is functional, organism-based.
Series [5] deals with T67. Put plainly: Antioxidant activity in tert-butyl hydroperoxide-stimulated human T67 cells assessed as reduction in intracellular ROS production at 10 uM after 24 hrs by spectrophotometry in presence of sulforaphane. In kind it is functional, cell-based.
Series [6] relates to T67. Put plainly: Antioxidant activity in tert-butyl hydroperoxide-stimulated human T67 cells assessed as reduction in intracellular ROS production at 10 uM after 24 hrs by spectrophotometry. In kind it is functional, cell-based.
A short description of series [7]: Cytotoxicity against mouse Neuro2a cells assessed as cell viability at 12.5 uM after 24 hrs by MTT assay relative to control. In kind it is cell-based, N2a. The settings on record: read-out: Activity.
Another series concerns N2a. Put plainly: Neuroprotective effect in amyloid beta-stimulated mouse Neuro2a cells assessed as increase in cell viability at 12.5 uM after 24 hrs by MTT assay. In kind it is functional, cell-based.
Series [8] has as its system Rattus norvegicus. Put plainly: Ex vivo inhibition of AChE in ip dosed Wistar rat telencephalon measured 1 hr post dose by colorimetric method. In kind it is functional, organism-based.
The next series concerns HepG2. Put plainly: Hepatotoxicity in human HepG2 cells assessed as reduction in cell viability at 12.5 to 50 uM after 24 hrs by MTT assay. In kind it is toxicity, cell-based. Conditions: hepg2, 24 h.

The source made the active and inactive calls. The rule behind the calls is not given here.

Cholinesterase, sequence (P06276 whole entry): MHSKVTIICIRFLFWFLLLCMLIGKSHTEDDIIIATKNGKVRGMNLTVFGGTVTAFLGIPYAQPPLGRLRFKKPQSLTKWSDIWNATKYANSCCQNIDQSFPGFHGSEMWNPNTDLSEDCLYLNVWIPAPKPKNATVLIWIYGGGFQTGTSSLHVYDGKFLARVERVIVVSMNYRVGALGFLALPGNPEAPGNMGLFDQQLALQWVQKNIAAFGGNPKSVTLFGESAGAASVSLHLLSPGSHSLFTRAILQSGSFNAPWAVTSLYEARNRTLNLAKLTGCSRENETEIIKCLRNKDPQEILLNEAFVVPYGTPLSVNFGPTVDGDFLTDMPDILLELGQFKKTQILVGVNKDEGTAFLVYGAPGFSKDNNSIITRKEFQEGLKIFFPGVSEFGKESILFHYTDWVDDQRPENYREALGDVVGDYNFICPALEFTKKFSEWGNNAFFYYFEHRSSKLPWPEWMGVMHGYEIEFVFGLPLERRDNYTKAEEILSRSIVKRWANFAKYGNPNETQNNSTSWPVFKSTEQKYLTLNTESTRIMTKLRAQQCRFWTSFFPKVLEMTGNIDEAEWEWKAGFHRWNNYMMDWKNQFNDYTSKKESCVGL
Acetylcholinesterase, sequence (P22303 whole entry): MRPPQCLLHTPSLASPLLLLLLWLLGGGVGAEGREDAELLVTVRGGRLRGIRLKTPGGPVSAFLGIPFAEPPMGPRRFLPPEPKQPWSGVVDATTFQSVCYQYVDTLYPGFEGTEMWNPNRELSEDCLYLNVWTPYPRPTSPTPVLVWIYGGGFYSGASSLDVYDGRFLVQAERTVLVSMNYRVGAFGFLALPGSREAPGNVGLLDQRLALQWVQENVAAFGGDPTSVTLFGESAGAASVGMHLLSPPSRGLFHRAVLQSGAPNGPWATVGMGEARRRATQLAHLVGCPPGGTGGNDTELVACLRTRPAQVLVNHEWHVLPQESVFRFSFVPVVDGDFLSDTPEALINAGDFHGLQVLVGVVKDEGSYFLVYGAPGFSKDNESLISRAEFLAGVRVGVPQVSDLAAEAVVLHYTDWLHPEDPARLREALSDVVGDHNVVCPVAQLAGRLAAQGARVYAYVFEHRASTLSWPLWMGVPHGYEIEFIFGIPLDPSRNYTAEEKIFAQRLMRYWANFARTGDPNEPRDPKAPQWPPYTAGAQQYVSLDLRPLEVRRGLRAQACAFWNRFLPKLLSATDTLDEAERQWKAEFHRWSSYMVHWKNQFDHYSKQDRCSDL
Description for Acetylcholinesterase: Inhibition of human recombinant AChE after 5 mins by Ellman method

As to `COc1ccc2nc3c(c(NCCCNC4=CC(=O)c5ccccc5C4=O)c2c1)CCCC3`, the IC50 against Acetylcholinesterase is 6150 nM; at Cholinesterase, 635 nM. For the same molecule, the Activity entry is given as “Non-toxic” in series [1] and “Toxic” in [2].
The like results for `O=C1C(Cl)=C(NCCCNc2c3c(nc4ccccc24)CCCC3)C(=O)c2ccccc21` were, in that order, 38 nM, 47.8 nM, “Toxic” and “Toxic”.
The corresponding values for `O=C1C(NCCCNc2c3c(nc4cc(Cl)ccc24)CCCC3)=CC(=O)c2c(O)cccc21` are 9.24 nM, 258 nM, “Toxic” and “Toxic”.
The corresponding values for `COc1ccc2nc3c(c(NCCNC4=C(Cl)C(=O)c5ccccc5C4=O)c2c1)CCCC3` are 1370 nM, 970 nM, “Toxic” and “Toxic”.
Consider `O=C1C(NCCNc2c3c(nc4cc(Cl)ccc24)CCCC3)=CC(=O)c2c(O)cccc21`, for which the IC50 on Acetylcholinesterase was found to be 0.72 nM; against Cholinesterase it was 542 nM. The viability at 24 h, 12.5 µM came out at 73.5% in series [3] and 85.6% in series [7]. Further, the Activity entry in series [1] and in series [2] was “Toxic” throughout. Besides, in the series with Rattus norvegicus [4], the inhibition entry was “inactive”. For the same molecule, the outcome in the series on T67 [5] and with N2a was Active. The result in the series with T67 [6] was inactive. For the same molecule, the inhibition entry in the series with Rattus norvegicus [8] was “Dose-dependent effect”.
Take `COc1ccc2nc3c(c(NCCNC4=CC(=O)c5c(O)cccc5C4=O)c2c1)CCCC3`: the values for the IC50 on Acetylcholinesterase and against Cholinesterase were 651 nM and 1280 nM, respectively. The Activity result in series [1] and in series [2] was “Toxic” each time.
On to `O=C1C(Cl)=C(NCCNc2c3c(nc4cc(Cl)ccc24)CCCC3)C(=O)c2ccccc21`, for which the IC50 at Acetylcholinesterase amounted to 3.21 nM; against Cholinesterase, 287 nM. Besides, the Activity result in series [1] and in series [2] was “Toxic” each time.
As for `COc1ccc2nc3c(c(NCCNC4=CC(=O)c5ccccc5C4=O)c2c1)CCCC3`, the IC50 on Acetylcholinesterase amounted to 2530 nM; against Cholinesterase, 501 nM. In addition, the Activity result in series [1] and in [2] was “Toxic” in each case.
For the molecule `O=C1C=C(NCCCNc2c3c(nc4ccccc24)CCCC3)C(=O)c2ccccc21`, the IC50 on Acetylcholinesterase stood at 53.7 nM; against Cholinesterase, 19.1 nM. Also, the Activity entry in series [1] is reported as “Non-toxic”; in [2], “Toxic”.
The like results for `O=C1C=C(NCCCNc2c3c(nc4cc(Cl)ccc24)CCCC3)C(=O)c2ccccc21` were, in that order, 5.4 nM, 197 nM, “Non-toxic” and “Toxic”.
The like results for `O=C1C(Cl)=C(NCCCNc2c3c(nc4cc(Cl)ccc24)CCCC3)C(=O)c2ccccc21` were, in that order, 8.94 nM, 234 nM, “Toxic” and “Toxic”.
The like results for `COc1ccc2nc3c(c(NCCCNC4=C(Cl)C(=O)c5ccccc5C4=O)c2c1)CCCC3` were, in that order, 809 nM, 742 nM, “Toxic” and “Toxic”.
`O=C1C(NCCNc2c3c(nc4ccccc24)CCCC3)=CC(=O)c2c(O)cccc21`: the IC50 was determined as 24.7 nM against Acetylcholinesterase and 41.4 nM at Cholinesterase. Moreover, the Activity result in [1] and in [2] was “Toxic” in each case.
As to `O=C1C=C(NCCNc2c3c(nc4ccccc24)CCCC3)C(=O)c2ccccc21`, the figures for the IC50 against Acetylcholinesterase and at Cholinesterase were 14.3 nM and 5.45 nM, respectively. Also, the Activity result in series [1] is listed as “Non-toxic”; in series [2], “Toxic”.
With `O=C1C=C(NCCNc2c3c(nc4cc(Cl)ccc24)CCCC3)C(=O)c2ccccc21`, the IC50 against Acetylcholinesterase is 1.93 nM; on Cholinesterase it was 256 nM. Also, the Activity entry is “Non-toxic” in the series on HepG2, “Non-toxic” in series [1] and “Toxic” in series [2]. Besides, the viability at 24 h, 12.5 µM in [3] was 75%; in series [7], 105%. The inhibition result in the series on Rattus norvegicus [4] was “inactive”. In addition, the result in the series with T67 [5] and with N2a was Active. For the same molecule, the outcome in the series on T67 [6] was inactive. Moreover, in the series with Rattus norvegicus [8], the inhibition result is “Dose-dependent effect”.
`O=C1C(Cl)=C(NCCNc2c3c(nc4ccccc24)CCCC3)C(=O)c2ccccc21`: the IC50 at Acetylcholinesterase and against Cholinesterase was 96.1 nM throughout. Also, the Activity entry in [1] and in series [2] was “Toxic” throughout.
Regarding `COc1ccc2nc3c(c(NCCCNC4=CC(=O)c5c(O)cccc5C4=O)c2c1)CCCC3`, the values for the IC50 on Acetylcholinesterase and on Cholinesterase were 348 nM and 329 nM, respectively. Moreover, the Activity result in [1] and in series [2] was “Toxic” throughout.
`O=C1C(NCCCNc2c3c(nc4ccccc24)CCCC3)=CC(=O)c2c(O)cccc21`: the IC50 against Acetylcholinesterase came out at 103 nM; on Cholinesterase it was 14.5 nM. Also, the Activity result in [1] and in [2] was “Toxic” throughout.

What is called IC50 is the concentration at which inhibition is half-maximal.

The values are drawn from ChEMBL document CHEMBL3351527, “Multitarget drug design strategy: quinone-tacrine hybrids designed to block amyloid-β aggregation and to exert anticholinesterase and antioxidant effects” (J Med Chem, 2014).
